Results taken from patent US20080075796A1, “Compositions and Methods for Controlling Insects” (TyraTech, Inc., priority 2003, published 2008).
Where “and” joins values, the source holds several entries; their conditions need not be identical. Identical values can stand only once.

Key:
[1] = test system: Drosophila melanogaster Or43a olfactory receptor, SEQ ID NO: 4; assay: Interaction of plant essential oils with Or43a receptor binding site (3H-tyramine); settings: membranes, FIGS. 16, 17, 19-21
Protocol: (§1) Total RNA is prepared from the head and antenna of wild type Drosophila melanogaster using Trizol Reagent (Invitrogen). They are homogenized in the Trizol using a motor driven teflon pestle and glass homogenizer. RNA is then prepared as per the manufacturer's instructions and includes removal of proteoglycans and polysaccharides by precipitation. The total RNA is reverse transcribed using oligo-dT as a primer and MuLV reverse transcriptase (Applied Biosystems). […] The Sense oligonucleotides contain Not I sites and the antisense oligonucleotides contain Sac II sites. Both restriction sites are indicated by underlined nucleotide. […] For PCR amplification of Or83b, Vent polymerase (New England Biolabs) is used with the following conditions: about 95° C., about 5 min for about 1 cycle; about 95° C., about 30 sec; and about 70° C., about 90 sec for about 40 cycles; and about 70° C., about 10 min for about 1 cycle. For PCR amplification of Or43a, the Failsafe PCR premix selection kit (Epicentre Technologies) is used with the following conditions: about 95° C., about 5 mill for about 1 cycle; about 95° C., about 30 sec; about 60° C., about 30 sec and about 70° C., about 90 sec for about 50 cycles; and about 70° C., about 10 min for about 1 cycle. […] The PCR products are digested with Sac II and Not I, gel purified and ligated into pAC 5.1/N5 His B (Invitrogen). Inserts are sequenced on both strands by automated fluorescent sequencing (Vanderbilt Cancer Center).
(§2) To address whether Or83b receptor and Or43a receptor contain a specific binding site for tyramine, membranes expressing Or83b receptor or Or43a receptor are prepared from cells expressing either receptor, as described above, and used for competitive binding with ^3H-tyramine. The binding assay protocol is exactly as described for cells expressing TyrR, as described above.
(§3) The cells expressing one of the olfactory receptors are used to investigate the interaction of plant essential oils with these receptors and the signaling cascade downstream of each receptor.
(§4) For the binding activity, membranes are prepared from each cell model and used to investigate the interaction of plant essential oil with the receptor binding site.

[2] = test system: Drosophila melanogaster Or83b olfactory receptor, SEQ ID NO: 6; assay: Interaction of plant essential oils with Or83b receptor binding site (3H-tyramine); settings: membranes, FIGS. 16, 18-21
Protocol: as §1, §2, §3, §4

[3] = test system: farm ants; assay: Repellent effect on farm ants (treated filter paper); format: in vivo; settings: for repellency: in words
Protocol: Adult insect are randomly selected for testing the repellent effect of compositions and are not individually marked. About 5 insects per replicate are used. About 3 replicates are used for each treatment. Untreated control tests are included with only solvent (acetone) application to an equal sized population/replications, held under identical conditions. A filter paper (about 80 cm^2) is treated with the composition (about 100 mg in […] acetone). After about 3 min of air drying, the filter paper is placed in a dish and repellency against insects is performed. Insects are released to the dish, one insect at a time at the far end of the dish. Using one or more stopwatches, the time spent on either the filter paper or the untreated surface of the dish is recorded up to about 300 seconds. Repellency ratio (RR) is calculated as follows: RR=[(time on control surface−time on treated surface)/total time of test].
The repellent effect of various plant essential oils is tested by treating a filter paper with the test oils. After about five minutes at room temperature, the paper is placed in a dish and ants are introduced one at a time. […] Oils are tested alone. Additionally, oils are mixed to form compositions, which are then tested.

[4] = test system: Or83b and Or43a receptors; assay: Interaction of plant essential oils with olfactory receptor binding site (membranes, ^3H-tyramine); set-up: species or system Drosophila melanogaster; settings: membranes incubated with ^3H-tyramine
Protocol: as §3, §4

[5] = biological target: T1, Or43a receptor (Drosophila melanogaster, UniProt P81917, L154V); assay: Intracellular Ca^2+ mobilization in Schneider cells expressing Or43a receptor; format: cell-based; settings: before vs approximately 150 seconds after treatment
T1 construct: His (from vector pAc5.1/V5-His B) (C); expressed in transfected cells
Protocol: Intracellular calcium ion concentrations ([Ca^2+]i) are measured by using the acetoxymethyl (AM) ester of the fluorescent indicator fura-2 (Enan, et al., Biochem. Pharmacol vol 51, 447-454). In this study, cells expressing tyramine receptor are grown under standard conditions. A cell suspension is prepared in assay buffer (140 mM NaCL, 10 mM HEPES, 10 mM glucose, 5 mM KCl, 1 mM CaCl2, 1 mM MgCl2) and cell number adjusted to about 2×10^6 cells per ml. Briefly, about 1.0 ml cell suspension (about 2×10^6 cells) is incubated with about 5 μM Fura 2/AM for about 30 min at about 28° C. After incubation, the cells are pelleted at about 3700 rpm for about 10 sec at room temperature and then resuspended in about 1.5 ml assay buffer. [Ca^2+]i changes are analyzed in spectrofluorometer in the presence and absence of test chemicals. Excitation wave lengths are about 340 nm (generated by Ca^2+-bound fura-2) and about 380 nm (corresponding to Ca^2+-free fura-2). The fluorescence intensity is monitored at an emission wave length of about 510 nm. No absorbance of fluorescence artifacts are observed with any of the compounds used. The ratio of about 340/380 nm is calculated and plotted as a function of time.
Intracellular Ca^2+ levels are measured using the method described above in Example 3.
Changes in intracellular Ca^2+ levels are calculated based on the difference between the 340/380 fluorescence ratios before and after approximately 150 seconds of the treatment.

[6] = Day 0, test up to about 300 seconds
[7] = Day 0, time on treated surface of up to about 300 seconds

T1 sequence (P81917 whole entry L154V): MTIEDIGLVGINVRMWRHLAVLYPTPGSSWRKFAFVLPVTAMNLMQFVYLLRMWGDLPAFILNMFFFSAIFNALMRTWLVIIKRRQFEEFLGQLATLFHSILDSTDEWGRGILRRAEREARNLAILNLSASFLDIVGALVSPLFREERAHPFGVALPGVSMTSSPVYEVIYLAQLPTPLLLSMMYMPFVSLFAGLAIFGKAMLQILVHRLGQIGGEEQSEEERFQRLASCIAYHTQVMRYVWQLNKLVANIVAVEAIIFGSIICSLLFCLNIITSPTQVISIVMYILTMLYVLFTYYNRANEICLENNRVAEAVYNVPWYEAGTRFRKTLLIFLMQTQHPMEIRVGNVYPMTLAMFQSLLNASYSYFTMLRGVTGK

| Compound | interaction with the olfactory receptor [1] | interaction with the olfactory receptor [2] | Repellency %, R % ([3]; Day 0) | sec. on T surface [3, 6] | sec. on T surface [3, 7] | sec. on T surface ([3]; Day 1) | sec. on T surface ([3]; Day 1, test up to about 300 seconds) | interaction with the olfactory receptors [4] | change in intracellular Ca^2+ levels (340/380 fluorescence ratio) [5] | Repellency %, R % ([3]; Day 1) | repellency [3] |
| --- | --- | --- | --- | --- | --- | --- | --- | --- | --- | --- | --- |
| C=C(C)[C@H]1CC=C(C)CC1 [d-limonene] | interact | interact | 62.9% | 55.7 s | 55.7 s | 136.2 s and 136.4 s and 133.6 s | 136.2 s and 136.4 s and 133.6 s | interact with the olfactory receptors | calcium mobilization | – | – |
| CC1=CCC2CC1C2(C)C (stereo not drawn) [α-pinene] | interact | interact | 48.4% | – | 77.4 s | 139.2 s | – | interact with the olfactory receptors | calcium mobilization | 07.2% | – |
| C=CC(C)(O)CCC=C(C)C (stereo not drawn) [linalool] | interact | interact | 60.7% | – | 59.0 s | 111.2 s | – | interact with the olfactory receptors | calcium mobilization | 25.9% | – |
| CCOC(=O)c1ccccc1C(=O)OCC [diethyl phthalate] | interact | interact | – | – | – | – | – | interact with the olfactory receptors | – | – | – |
| C=C(C)[C@H]1CC=C(C)C(=O)C1 [d-carvone] | – | – | – | – | – | – | – | – | calcium mobilization | – | – |
| CC1=CCC(C(C)(C)O)CC1 (stereo not drawn) [α-terpineol] | interact | interact | 26.9% | – | 109.6 s | – | – | interact with the olfactory receptors | – | – | – |
| C=C1CCC2(C(C)C)CC12 (stereo not drawn) [sabinene] | interact | interact | – | – | – | – | – | interact with the olfactory receptors | calcium mobilization | – | display repellency |
| C=C(C)[C@@H]1CC=C(CO)CC1 [perillyl alcohol] | – | – | – | – | – | – | – | – | calcium mobilization | – | – |
| C/C=C/c1ccc(OC)cc1 [t-anethole] | interact | interact | – | – | – | – | – | interact with the olfactory receptors | – | – | – |
| OCc1ccc2c(c1)OCO2 [piperonyl alcohol] | interact | interact | – | – | – | – | – | interact with the olfactory receptors | calcium mobilization | – | – |
| C=CC(C)(CCC=C(C)C)OC(=O)c1ccccc1N (stereo not drawn) [linalyl anthranilate] | interact | interact | 69.2% | – | 46.2 s | 104.6 s | – | interact with the olfactory receptors | calcium mobilization | 30.7% | – |
| lindenol [listing 1 of 2 here] | interact | interact | 04.0% | 144.2 s | – | – | – | – | – | – | – |
| terpinene 900 [listing 1 of 2 here] | – | – | – | – | – | – | – | interact with the olfactory receptors | calcium mobilization | – | – |
| CC(C)[C@]12CC(=O)[C@H](C)[C@H]1C2 [α-thujone] | interact | interact | – | – | – | – | – | interact with the olfactory receptors | calcium mobilization | – | display repellency |
| Cc1ccc(C(C)C)cc1O [carvacrol] | interact | interact | – | – | – | – | – | interact with the olfactory receptors | calcium mobilization | – | display repellency |
| NCc1ccc2c(c1)OCO2 [piperonyl amine] | interact | interact | 48.3% | – | 77.6 s | 111.2 s | – | interact with the olfactory receptors | calcium mobilization | 25.9% | – |
| lindenol [listing 2 of 2 here] | – | – | – | – | 144.2 s | – | – | interact with the olfactory receptors | calcium mobilization | – | – |
| O=Cc1ccc2c(c1)OCO2 [piperonal] | interact | interact | 37.6% | – | 93.6 s | 125.8 s | – | interact with the olfactory receptors | decreases the intracellular Ca^2+ levels | 16.1% | – |
| l-carvone | – | – | – | – | – | – | – | – | calcium mobilization | – | – |
| terpinene 900 [listing 2 of 2 here] | interact | interact | – | – | – | – | – | – | – | – | – |
| O=C1C=CC(=O)C=C1 [quinone] | interact | interact | – | – | – | – | – | interact with the olfactory receptors | – | – | – |
| C=C[C@H]1C[N@@]2CC[C@H]1C[C@H]2[C@H](O)c1ccnc2ccc(OC)cc12 [quinine] | – | – | – | – | – | – | – | – | calcium mobilization | – | – |
| Cc1ccc(C(C)C)cc1 [p-cymene] | interact | interact | 42.5% | – | 86.2 s | 133.6 s | – | interact with the olfactory receptors | calcium mobilization | 10.9% | – |
